Series [1] has as its system Rattus norvegicus. The series can be described thus: Antinociceptive efficacy in spinal nerve ligated Sprague-Dawley rat assessed as reduction of neuropathic pain in left side paw at 500 umol/kg, ip administered 30 mins before testing relative to control. The format is functional.
In series [2] the test system is Rattus norvegicus. The series can be described thus: Antinociceptive efficacy in ip dosed rat assessed as inhibition of carrageenan-induced inflammatory pain in paw after 30 mins by hotbox assay relative to control. It counts as functional.
Series [3] has as its system Liver microsomes. The series can be described thus: Metabolic stability in human liver microsomes. It counts as ADME, Microsome. Background: Liver microsomes are a subcellular fraction often used to study metabolism.
Series [4] is described as follows: Protein binding in rat. It counts as ADME, organism-based. To be noted: in vivo, read-out: PB (converted).
Series [5] has as its target Prostaglandin G/H synthase 1 (Homo sapiens) (UniProt P23219). Briefly: Binding affinity at COX1.
Series [6] can be described thus: Fractional bioavailability in rat at 5 mg/kg, iv and 5 mg/kg, po. The format is ADME, organism-based. To be noted: in vivo.
The test system of series [7] is Mus musculus. The series can be described thus: Antiinflammatory activity against ip dosed BALB/c mouse assessed as inhibition of zymosan-induced peritonitis after 2 hrs pretreated 30 mins before zymosan challenge. The format is functional.
The nature of series [8]: Half life in mouse at 5 mg/kg, iv. To be noted: in vivo. It counts as ADME, organism-based. Details: dose 5 mg/kg, route intravenous.
The subject of series [9] is Rattus norvegicus. Briefly: Antinociceptive efficacy in spinal nerve ligated Sprague-Dawley rat assessed as reduction of neuropathic pain in left side paw at 100 umol/kg, ip administered 30 mins before testing relative to control. It counts as functional.
Series [10] is described as follows: Terminal volume of distribution in mouse at 5 mg/kg, iv. Details: dose 5 mg/kg, route intravenous. It counts as ADME, organism-based. Conditions: in vivo, read-out: Vbeta.
Series [11] can be described thus: Metabolic stability in mouse liver microsomes. The format is ADME, Microsome.
Series [12] deals with Kappa-type opioid receptor (Homo sapiens) (UniProt P41145). The series can be described thus: Binding affinity to kappa opioid receptor.
Sequence of Kappa-type opioid receptor (Homo sapiens) (P41145 whole entry): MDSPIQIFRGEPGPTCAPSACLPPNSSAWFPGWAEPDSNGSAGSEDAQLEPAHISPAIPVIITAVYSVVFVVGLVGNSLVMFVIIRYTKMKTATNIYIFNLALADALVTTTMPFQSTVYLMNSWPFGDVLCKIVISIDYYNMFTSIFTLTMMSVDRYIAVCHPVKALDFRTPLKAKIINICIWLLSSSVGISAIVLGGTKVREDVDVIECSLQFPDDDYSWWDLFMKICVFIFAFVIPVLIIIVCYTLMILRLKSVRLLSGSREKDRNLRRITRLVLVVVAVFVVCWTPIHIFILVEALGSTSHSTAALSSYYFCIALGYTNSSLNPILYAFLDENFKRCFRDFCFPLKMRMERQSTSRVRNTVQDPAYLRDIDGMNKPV
Series [13] deals with T1, Histamine H4 receptor (Mus musculus, UniProt Q91ZY2).
T1 sequence (Q91ZY2 whole entry): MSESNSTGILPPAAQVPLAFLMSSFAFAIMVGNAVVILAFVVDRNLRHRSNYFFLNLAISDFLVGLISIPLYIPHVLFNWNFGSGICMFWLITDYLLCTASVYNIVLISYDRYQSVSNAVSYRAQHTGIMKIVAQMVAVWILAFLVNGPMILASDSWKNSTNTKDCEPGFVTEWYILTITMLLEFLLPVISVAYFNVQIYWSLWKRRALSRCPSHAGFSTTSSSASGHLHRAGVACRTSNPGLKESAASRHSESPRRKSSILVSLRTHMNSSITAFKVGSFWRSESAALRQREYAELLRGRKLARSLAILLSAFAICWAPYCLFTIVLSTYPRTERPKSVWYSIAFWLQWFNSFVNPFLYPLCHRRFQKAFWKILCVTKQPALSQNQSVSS
Briefly: Antagonist activity at mouse histamine H4 receptor expressed in HEK293 cells assessed as inhibition of histamine-induced intracellular calcium elevation by FLIPR assay. It counts as functional, cell-based. Background: Calcium flux is commonly read through the fluorescence of an indicator in the cells.

The target of series [14] is Mu-type opioid receptor (Homo sapiens) (UniProt P35372). Briefly: Binding affinity to mu opioid receptor.
Sequence of Mu-type opioid receptor (Homo sapiens) (P35372 whole entry): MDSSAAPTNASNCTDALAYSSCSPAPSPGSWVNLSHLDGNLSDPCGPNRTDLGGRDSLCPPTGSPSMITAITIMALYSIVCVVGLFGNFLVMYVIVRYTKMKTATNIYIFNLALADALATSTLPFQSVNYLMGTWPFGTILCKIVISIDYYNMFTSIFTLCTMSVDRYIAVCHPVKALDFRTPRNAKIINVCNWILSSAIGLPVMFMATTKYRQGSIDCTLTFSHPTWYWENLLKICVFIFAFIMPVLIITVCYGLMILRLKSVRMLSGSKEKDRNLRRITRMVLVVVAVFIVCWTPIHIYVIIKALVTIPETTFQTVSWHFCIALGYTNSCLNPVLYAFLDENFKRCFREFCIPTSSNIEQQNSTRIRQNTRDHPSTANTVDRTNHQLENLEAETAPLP
The nature of series [15]: Protein binding in human. It counts as ADME, organism-based. To be noted: in vivo, read-out: PB (converted).
A short description of series [16]: Half life in rat at 10 mg/kg, iv. Details: dose 10 mg/kg, route intravenous. The format is ADME, organism-based. Conditions: in vivo.
The next series concerns the target Cytochrome P450 2C9 (Homo sapiens, UniProt P11712). Briefly: Inhibition of CYP2C9 upto 10 uM. The format is ADME.
For series [17], the target named is T2, Histamine H4 receptor (Rattus norvegicus, UniProt Q91ZY1). Briefly: Displacement of [3H]histamine from rat histamine H4 receptor expressed in HEK293 cells. It counts as cell-based.
T2 sequence (Q91ZY1 whole entry): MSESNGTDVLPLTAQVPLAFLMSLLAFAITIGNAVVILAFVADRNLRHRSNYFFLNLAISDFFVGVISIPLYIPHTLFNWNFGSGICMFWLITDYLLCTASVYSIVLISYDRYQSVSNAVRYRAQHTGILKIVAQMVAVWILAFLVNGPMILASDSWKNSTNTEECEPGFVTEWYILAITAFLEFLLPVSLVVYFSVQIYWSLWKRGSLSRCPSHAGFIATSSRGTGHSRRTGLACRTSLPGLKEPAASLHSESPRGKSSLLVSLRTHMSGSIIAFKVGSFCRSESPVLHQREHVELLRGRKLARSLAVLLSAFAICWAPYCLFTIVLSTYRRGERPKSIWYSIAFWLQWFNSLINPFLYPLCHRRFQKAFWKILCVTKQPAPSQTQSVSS
The target in another series is Cytochrome P450 2D6 (Homo sapiens, UniProt P10635). The series can be described thus: Inhibition of CYP2D6 upto 10 uM. The format is ADME.
Sequence of Cytochrome P450 2D6 (P10635 whole entry): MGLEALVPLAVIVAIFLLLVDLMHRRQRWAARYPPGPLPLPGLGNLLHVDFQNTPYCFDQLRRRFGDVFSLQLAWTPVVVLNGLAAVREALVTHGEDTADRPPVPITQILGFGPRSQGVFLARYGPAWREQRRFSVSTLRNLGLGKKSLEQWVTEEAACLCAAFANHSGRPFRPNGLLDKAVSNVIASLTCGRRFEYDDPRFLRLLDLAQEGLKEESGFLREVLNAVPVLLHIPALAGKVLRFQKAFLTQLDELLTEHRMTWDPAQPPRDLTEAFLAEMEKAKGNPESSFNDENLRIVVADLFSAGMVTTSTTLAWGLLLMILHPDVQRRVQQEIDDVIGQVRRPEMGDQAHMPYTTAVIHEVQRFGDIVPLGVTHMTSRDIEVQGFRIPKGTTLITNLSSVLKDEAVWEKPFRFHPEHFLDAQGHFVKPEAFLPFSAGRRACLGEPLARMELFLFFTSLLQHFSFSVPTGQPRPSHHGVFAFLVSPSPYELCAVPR
Series [18] is described as follows: Blood clearance in rat at 10 mg/kg, iv. It counts as ADME, organism-based. Details: dose 10 mg/kg, route intravenous. To be noted: whole blood.
The next series concerns BMMC. Briefly: Blockade of histamine-induced morphological changes in BALB/c mouse BMMC by flow cytometry. It counts as functional, cell-based. A general note: Flow cytometry measures light scatter and fluorescence of single cells or particles in a stream.
The target in series [19] is T2, Histamine H4 receptor. The series can be described thus: Antagonist activity at rat histamine H4 receptor expressed in HEK293 cells assessed as inhibition of histamine-induced intracellular calcium elevation by FLIPR assay. The format is functional, cell-based.
The nature of series [20]: Terminal volume of distribution in rat at 10 mg/kg, iv. The format is ADME, organism-based. Details: dose 10 mg/kg, route intravenous. Conditions: in vivo, read-out: Vbeta.
Series [21] deals with Cannabinoid receptor 1 (Homo sapiens) (UniProt P21554). The series can be described thus: Binding affinity to CB1 receptor.
Sequence of Cannabinoid receptor 1 (Homo sapiens) (P21554 whole entry): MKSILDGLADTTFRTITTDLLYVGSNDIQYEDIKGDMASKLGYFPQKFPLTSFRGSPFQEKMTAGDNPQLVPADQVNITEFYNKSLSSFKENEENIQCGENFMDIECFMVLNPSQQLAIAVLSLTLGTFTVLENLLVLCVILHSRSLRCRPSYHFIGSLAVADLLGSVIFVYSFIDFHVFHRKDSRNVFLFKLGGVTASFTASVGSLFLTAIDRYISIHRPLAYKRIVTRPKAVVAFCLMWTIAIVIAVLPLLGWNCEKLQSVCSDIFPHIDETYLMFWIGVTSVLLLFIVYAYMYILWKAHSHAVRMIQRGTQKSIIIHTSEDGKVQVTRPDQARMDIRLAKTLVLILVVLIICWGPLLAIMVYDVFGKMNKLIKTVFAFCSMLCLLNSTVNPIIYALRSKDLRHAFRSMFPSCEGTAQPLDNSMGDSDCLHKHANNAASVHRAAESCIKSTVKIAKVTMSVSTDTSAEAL
Series [22] can be described thus: Ratio of drug level in brain to plasma in rat at 10 mg/kg, iv after 30 mins. It counts as ADME, organism-based. Details: dose 10 mg/kg, route intravenous.
The target of series [23] is Histamine H4 receptor (Homo sapiens, UniProt Q9H3N8). Conditions: HEK293.
Sequence of Histamine H4 receptor (Homo sapiens, UniProt Q9H3N8) (Q9H3N8 whole entry): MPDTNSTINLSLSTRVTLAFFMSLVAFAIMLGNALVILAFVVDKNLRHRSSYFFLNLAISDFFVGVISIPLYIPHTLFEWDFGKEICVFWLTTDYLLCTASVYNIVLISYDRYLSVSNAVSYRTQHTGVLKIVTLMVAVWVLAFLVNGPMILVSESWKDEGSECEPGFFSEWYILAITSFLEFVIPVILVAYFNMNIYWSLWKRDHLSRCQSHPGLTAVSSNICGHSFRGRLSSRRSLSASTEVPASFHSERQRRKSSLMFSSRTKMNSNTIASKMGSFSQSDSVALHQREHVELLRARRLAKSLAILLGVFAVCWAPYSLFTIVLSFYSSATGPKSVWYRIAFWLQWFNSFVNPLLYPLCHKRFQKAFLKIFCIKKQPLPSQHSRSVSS
Series [24] concerns the target Delta-type opioid receptor (Homo sapiens) (UniProt P41143). The series can be described thus: Binding affinity to delta opioid receptor.
Series [25] concerns Mus musculus. Briefly: Inhibition of clobenpropit-induced itching in ip dosed CD1/ICR mouse assessed as blockade of scratching in hind paw for 25 mins pretreated 30 mins before clobenpropit challenge. It counts as functional.
Another series addresses Cytochrome P450 3A4 (Homo sapiens, UniProt P08684). The series can be described thus: Inhibition of CYP3A4 upto 10 uM. It counts as ADME.
Series [26] addresses T3, Prostaglandin G/H synthase 2 (Homo sapiens) (UniProt P35354).
T3 sequence (whole entry): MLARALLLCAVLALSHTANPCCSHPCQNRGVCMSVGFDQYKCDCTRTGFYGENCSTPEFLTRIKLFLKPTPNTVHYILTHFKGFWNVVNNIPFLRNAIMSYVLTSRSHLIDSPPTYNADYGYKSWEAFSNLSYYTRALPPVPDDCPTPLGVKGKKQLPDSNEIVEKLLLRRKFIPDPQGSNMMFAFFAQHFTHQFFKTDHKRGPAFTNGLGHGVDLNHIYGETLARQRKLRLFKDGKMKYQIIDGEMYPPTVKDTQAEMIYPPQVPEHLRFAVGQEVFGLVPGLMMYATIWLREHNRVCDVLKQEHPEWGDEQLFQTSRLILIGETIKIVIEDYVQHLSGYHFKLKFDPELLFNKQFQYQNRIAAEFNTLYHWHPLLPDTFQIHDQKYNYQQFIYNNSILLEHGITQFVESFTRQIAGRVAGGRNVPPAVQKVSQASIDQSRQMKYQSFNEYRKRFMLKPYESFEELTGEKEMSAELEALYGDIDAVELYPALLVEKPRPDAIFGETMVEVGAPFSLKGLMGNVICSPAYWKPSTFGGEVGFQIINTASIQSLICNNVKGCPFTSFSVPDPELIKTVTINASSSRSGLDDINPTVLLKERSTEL
Briefly: Binding affinity at COX2.

A short description of series [27]: Fractional bioavailability in rat at 10 mg/kg, iv and 10 mg/kg, po. To be noted: in vivo. It counts as ADME, organism-based.
Series [28] deals with Mus musculus. The series can be described thus: Blood clearance in mouse at 5 mg/kg, iv. The format is ADME, organism-based. Details: dose 5 mg/kg, route intravenous. To be noted: in vivo.
In series [29] the test system is Rattus norvegicus. The series can be described thus: Antinociceptive efficacy in ip dosed rat assessed as inhibition of carrageenan-induced inflammatory pain in paw after 30 mins by hotbox assay. To be noted: 0.5 h. It counts as functional.
Series [30] has as its system Liver microsomes. Briefly: Metabolic stability in rat liver microsomes. It counts as ADME, Microsome.
The target of series [31] is Cannabinoid receptor 2 (Homo sapiens) (UniProt P34972). The series can be described thus: Binding affinity to CB2 receptor.
Sequence of Cannabinoid receptor 2 (Homo sapiens) (P34972 whole entry): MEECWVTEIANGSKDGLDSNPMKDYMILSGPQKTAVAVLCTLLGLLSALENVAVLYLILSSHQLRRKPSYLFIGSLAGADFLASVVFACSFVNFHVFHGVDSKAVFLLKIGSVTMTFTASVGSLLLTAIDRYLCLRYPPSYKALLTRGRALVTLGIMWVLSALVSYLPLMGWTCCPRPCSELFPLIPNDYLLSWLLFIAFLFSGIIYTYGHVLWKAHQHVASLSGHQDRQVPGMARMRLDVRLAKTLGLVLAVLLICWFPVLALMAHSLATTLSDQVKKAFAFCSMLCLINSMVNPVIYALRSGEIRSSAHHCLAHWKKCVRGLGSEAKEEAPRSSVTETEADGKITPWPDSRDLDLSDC
Series [32] relates to Rattus norvegicus. Briefly: Antinociceptive efficacy in rat assessed as inhibition of carrageenan-induced inflammatory pain in paw at 100 umol/kg, ip after 30 mins by hotbox assay relative to control. It counts as functional.

Calls of active or inactive are those of the source. No cut-off for these calls is given here.

Sequence of Delta-type opioid receptor (Homo sapiens) (P41143 whole entry): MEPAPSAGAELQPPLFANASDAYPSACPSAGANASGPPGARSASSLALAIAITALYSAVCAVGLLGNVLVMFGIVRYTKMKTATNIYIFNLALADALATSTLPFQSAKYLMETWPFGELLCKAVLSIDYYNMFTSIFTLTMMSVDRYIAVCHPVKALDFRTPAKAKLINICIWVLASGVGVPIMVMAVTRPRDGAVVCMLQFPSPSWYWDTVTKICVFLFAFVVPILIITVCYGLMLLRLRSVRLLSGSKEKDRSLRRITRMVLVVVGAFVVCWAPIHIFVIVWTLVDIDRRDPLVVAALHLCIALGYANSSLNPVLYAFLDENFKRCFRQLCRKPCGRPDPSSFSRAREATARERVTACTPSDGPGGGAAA
Sequence of Prostaglandin G/H synthase 1 (Homo sapiens) (P23219 whole entry): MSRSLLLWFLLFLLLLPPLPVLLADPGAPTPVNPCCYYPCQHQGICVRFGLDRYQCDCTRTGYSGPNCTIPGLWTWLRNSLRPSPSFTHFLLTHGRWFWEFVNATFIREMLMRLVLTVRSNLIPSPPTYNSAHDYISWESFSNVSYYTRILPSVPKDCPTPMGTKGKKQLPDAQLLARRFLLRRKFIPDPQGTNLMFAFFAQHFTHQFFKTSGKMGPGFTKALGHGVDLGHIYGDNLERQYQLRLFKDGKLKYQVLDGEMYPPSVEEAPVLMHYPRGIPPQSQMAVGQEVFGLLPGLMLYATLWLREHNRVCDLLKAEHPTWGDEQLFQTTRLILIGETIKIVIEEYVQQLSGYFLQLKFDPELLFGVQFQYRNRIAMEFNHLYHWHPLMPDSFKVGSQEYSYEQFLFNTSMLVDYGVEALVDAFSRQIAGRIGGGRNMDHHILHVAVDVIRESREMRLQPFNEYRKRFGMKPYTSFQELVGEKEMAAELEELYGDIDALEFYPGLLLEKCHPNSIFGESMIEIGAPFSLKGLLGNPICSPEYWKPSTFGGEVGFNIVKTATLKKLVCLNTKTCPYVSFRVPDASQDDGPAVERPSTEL
Sequence of Cytochrome P450 3A4 (P08684 whole entry): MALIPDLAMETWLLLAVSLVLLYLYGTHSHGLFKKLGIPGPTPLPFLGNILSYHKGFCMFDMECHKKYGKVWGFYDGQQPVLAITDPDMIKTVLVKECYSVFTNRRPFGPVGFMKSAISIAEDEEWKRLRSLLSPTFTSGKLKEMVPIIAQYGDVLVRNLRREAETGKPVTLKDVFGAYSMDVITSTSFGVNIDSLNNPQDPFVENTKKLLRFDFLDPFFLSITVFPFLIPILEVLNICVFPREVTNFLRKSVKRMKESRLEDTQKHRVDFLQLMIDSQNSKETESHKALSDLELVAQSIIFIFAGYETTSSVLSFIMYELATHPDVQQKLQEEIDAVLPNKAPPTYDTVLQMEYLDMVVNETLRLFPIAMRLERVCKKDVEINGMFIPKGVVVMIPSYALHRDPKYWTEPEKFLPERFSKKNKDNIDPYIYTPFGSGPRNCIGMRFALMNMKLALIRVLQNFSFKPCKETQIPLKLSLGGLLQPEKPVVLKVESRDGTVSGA
Sequence of Cytochrome P450 2C9 (P11712 whole entry): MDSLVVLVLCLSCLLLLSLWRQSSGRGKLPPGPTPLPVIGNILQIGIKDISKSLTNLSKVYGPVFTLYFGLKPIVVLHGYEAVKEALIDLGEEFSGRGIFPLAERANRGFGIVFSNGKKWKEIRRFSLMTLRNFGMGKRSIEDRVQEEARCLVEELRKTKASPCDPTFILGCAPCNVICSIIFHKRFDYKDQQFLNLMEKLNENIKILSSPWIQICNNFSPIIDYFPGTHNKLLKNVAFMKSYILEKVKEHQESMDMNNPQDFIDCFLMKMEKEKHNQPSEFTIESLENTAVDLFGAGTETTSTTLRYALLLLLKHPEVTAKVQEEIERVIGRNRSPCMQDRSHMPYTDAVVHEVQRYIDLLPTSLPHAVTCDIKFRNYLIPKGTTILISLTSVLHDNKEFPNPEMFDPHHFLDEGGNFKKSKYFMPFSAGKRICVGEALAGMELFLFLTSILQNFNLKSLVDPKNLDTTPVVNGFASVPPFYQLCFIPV

As to `NCC1(CC(=O)O)CCCCC1` [GABAPENTIN], the Efficacy in the series on Rattus norvegicus [1] was determined as 62%.

As to `O=C(O)Cc1ccccc1Nc1c(Cl)cccc1Cl` [DICLOFENAC], the Efficacy with Rattus norvegicus [2] turned out to be 91%.

As usually defined, the bioavailability is the share of a dose that reaches the circulation, judged against a reference dose that is usually intravenous. High values mean much systemic uptake, low ones little systemic uptake. What is called ED50 is the dose that gives a 50% effect, or the effect in half of the subjects. As a reminder, the half-life is how long it takes for the measured level to halve. A high value points to slow decline. A word on the EC50: it is the concentration needed to bring the measured effect to its halfway point. The Ki is a dissociation constant, usually derived from enzyme kinetics or from competition with a known ligand. Broadly, the clearance is a measure of how efficiently the substance is removed, as volume per time. Read a high clearance as efficient removal. For orientation: Kp means tissue or fluid exposure divided by exposure in the circulation. By pKb is commonly meant the negative decadic logarithm of the Kb, by convention in mol/L. A high value points to a small Kb. As to `Nc1nc2c(c(N3CC[C@@H](N)C3)n1)CCCc1ccccc1-2`, the Stability is 13 pmol/min/mg in the series with Liver microsomes [3], 32.9 pmol/min/mg in series [11] and 19 pmol/min/mg in the series with Liver microsomes [30]. Besides, the fraction unbound in series [4] was 0.45; in [15], 0.52. In addition, the outcome in [5], in [12], in series [14], in [21], in series [24] and in series [26] was inactive. For the same compound, in [31], the result was inactive. In addition, the bioavailability in series [6] worked out at 90%; in [27], 34%. In addition, the ED50 in the series with Mus musculus [7] is 34 µmol/kg; with Mus musculus [25], 33 µmol/kg; in the series on Rattus norvegicus [29], 72 µmol/kg. In addition, the values for the half-life in [8] and in [16] were 1.6 h and 2.6 h, respectively. Further, the results for the Efficacy with Rattus norvegicus [9] and in the series on Rattus norvegicus [32] were 47% and 68%, respectively. For the same compound, the Vd in series [10] is 131 L/kg; in [20], 72.9 L/kg. Moreover, the EC50 at Histamine H4 receptor [13] was 5.75 nM; at Histamine H4 receptor [19] it was 10 nM. Further, the Activity result at Cytochrome P450 2C9, on Cytochrome P450 2D6 and on Cytochrome P450 3A4 was “Not Active” each time. This compound had a Ki on Histamine H4 receptor [17] of 3.8 nM. This compound had a clearance in series [18] of 323 mL/min/kg. The result in the series with BMMC was Active. Further, in series [22], the Kp at 0.5 h came out at 2.2. The negative logarithm of the Kb (pKb) at Histamine H4 receptor [23] is 8.24. In addition, in the series on Mus musculus [28], the CL is 1190 mL/min/kg.

For the origin of these results see ChEMBL document CHEMBL1140165, “Rotationally constrained 2,4-diamino-5,6-disubstituted pyrimidines: a new class of histamine H4 receptor antagonists with improved druglikeness and in vivo efficacy in pain and inflammation models” (J Med Chem, 2008).
